In patent publication US5591773A, “Inhibition of cataract formation, diseases resulting from oxidative stress, and HIV replication by caffeic acid esters” (priority 1994, dated 1997):
“And” between values parts separate entries of the source, which are not always exact repeats. Equal values may be shown once.

Assays:
[1] = tested on: TPA-induced PMN infiltration in mouse skin (MPO); assay: TPA-induced PMN infiltration (MPO) in dorsal skin of SENCAR mice; format: in vivo
Description: (§1) FIGS. 2A-2D. CAPE-mediated inhibition of TPA-induced oxidative processes in SENCAR mice. Mice were topically treated with 6.5 nmol CAPE 30 min prior to 6.5 nmol TPA, and this regimen was repeated 20 h later. Mice were sacrificed 1 h after the last treatment and the skin removed for determination of: (FIG. 2A) PMN infiltration (by measuring myeloperoxidase (MPO)); (FIG. 2B) H2 O2; (FIG. 2C) HMdUrd (HMdU); and (FIG. 2D) 8-OHdGua (8-OHdG), according to procedures described in the "Experimental Details" Section, infra. .quadrature., controls treated with acetone in place of CAPE and TPA; , treatment with acetone followed by TPA; .box-solid., treatment with CAPE followed by TPA. Results are expressed as mean ± SE (bars) from two experiments (2 mice/experiment) in the CAPE series. Data for acetone (ACT)- and TPA-treated mean values were collected from over 20 experiments.
A) Treatment of Animals and Assays. Female SENCAR (6-8 weeks old) and CD-1 mice (about 7 weeks old) were purchased from Biological Testing, National Cancer Institute (Frederick, Md.) and from Charles River Laboratory (Stone Ridge, N.Y.), respectively. The mice were acclimated for at least 1 week before use. They were subjected to a 12-h light/12-h dark cycle, housed at 20°±2° C. in a room with 10 cycles of air exchanges/h, given food and water ad libitum, and observed for any indication of ill health. Before topical application of any test agents, their backs were shaved and only those without hair growth after 48 h were used.
(§2) C) MPO, H2 O2, and Oxidized DNA Bases. SENCAR mice were pretreated with CAPE for 30 min; then 6.5 nmol (4 μg) TPA/mouse topically applied to the dorsal skin. After 20 h, the CAPE and TPA treatment (1x) was repeated (2x treatment). One h after the second treatment, the mice were sacrificed by cervical dislocation, and 12.5-mm punches were obtained to be used separately for MPO and H2 O2 determinations. The remainder of the treated mouse skin or the combined skins from two mice were used for separation of epidermal cells. This was done by heating the skin at 55° C. for 30 s followed by rapid immersion into an ice-cold water bath (45). After the epidermis was scraped off, the presence of oxidized DNA base derivatives was measured in the epidermal DNA. All of these end points were analyzed by published procedures and are briefly described below.
The assay for MPO was carried out according to the procedure of Metcalf et al. (53) with some modifications (20), and the results are expressed as units/cm^2, where a unit is defined as that degrading 1 μmol H2 O2 /min at 25° C. The presence of MPO in the mouse ears was measured in the homogenates. They were prepared by mincing the ears and homogenizing them in an ice-cold water bath with a polytron homogenizer, either twice for 20 s each or three times for 10 s each. Each homogenate was analyzed in duplicate and the results are expressed as mean MPO (units/mg protein) ±SE for each of the homogenates.
(§3) ^a Mice were treated as described in the legend to FIG. 2, except tha

[2] = tested on: TPA-induced H2O2 production in mouse skin; assay: TPA-induced H2O2 production in skin of SENCAR mice; format: in vivo
Description: as §1, §2
Punches used for H2 O2 determination were immediately minced with scissors in cold 50 mM phosphate buffer, pH 7.0, containing 10 mM azide that is needed for inhibition of catalase. They were then homogenized, and centrifuged at 4° C. and the supernatants were stored at -80° C. for up to 1 week. H2 O2 was measured in freshly thawed supernatants using horseradish peroxidase-mediated oxidation of phenol red (21), and the results are expressed as nmol H2 O2 /cm^2 /10-min incubation. Although organic hydroperoxides also can be generated under these conditions (45), we find that H2 O2 constitutes a great majority of the oxidants generated because 60-85% of the oxidants produced are catalase inhibitable (21).
as §3

HMdUrd in epidermal DNA = assay: TPA-induced HMdUrd formation in epidermal DNA of SENCAR mice; format: in vivo
Description: as §1, §2
The epidermis was homogenized and lysed, and the proteins and RNA were removed by proteinase K and RNase digestions, respectively (20). The DNA was separated and purified on A.S.A.P. columns (Boehringer-Mannheim Biochemicals) and precipitated with isopropyl alcohol.
The pellet was then washed with 70% ethyl alcohol, dried, and dissolved in 10 mM Tris.cndot.HCl-100 mM NaCl buffer, pH 7.0, according to the manufacturer's procedure. The DNA was sheared and enzymatically digested to nucleosides, and the hydrolysates were separated by HPLC (Beckman, Model 344) on an ODS column (Altex, 1×25 cm; 5 μm particle size) (50). The fractions that eluted after 30 ml were combined (excluding those containing normal nucleosides) and dried. The oxidized nucleosides were detected by ^3 H-postlabeling with [^3 H]acetic anhydride, followed by HPLC analysis of ^3 H-containing acetates in the presence of marker acetates (50). The results are presented as the number of oxidized nucleosides/10^4 normal bases, unless otherwise stated.
as §3

[3] = tested on: untransformed rat 6 cells; conditions: cited from earlier work
[4] = CAPE 6.5 nmol, TPA 6.5 nmol, 2x

| SMILES | decrease of TPA-induced PMN infiltration ([1]; CAPE 6.5 nmol 30 min before each of two TPA 6.5 nmol applications, SENCAR mouse skin) | MPO ([1]; CAPE 6.5 nmol pretreatment then TPA 6.5 nmol, 2x, (4 experiments), SE 0.3 on next line) [units/cm^2 skin] | MPO ([1]; CAPE 650 nmol pretreatment then TPA 6.5 nmol, 2x, (4 experiments), SE 2.0 on next line) [units/cm^2 skin] | TPA-mediated PMN infiltration and formation of HMdUrd and 8-OHdGua at high dose (in words) ([1]; CAPE 650 nmol/treatment, 2x, 20 h apart, vs 6.5 nmol) | H2O2 ([2]; CAPE 6.5 nmol then TPA 6.5 nmol, 2x, (5 experiments), SE 2.2 on next line) [nmol/cm^2 skin] | inhibition of TPA-induced H2O2 formation ([2]; CAPE 6.5 nmol, TPA 6.5 nmol, 2x, SENCAR mouse skin) [%] | H2O2 ([2]; CAPE 650 nmol then TPA 6.5 nmol, 2x, (5 experiments), SE 0.6 on next line) [nmol/cm^2 skin] | H2O2 levels at high dose (in words) ([2]; CAPE 650 nmol/treatment vs 6.5 nmol) | HMdUrd/10^4 bases (HMdUrd in epidermal DNA; CAPE 6.5 nmol then TPA 6.5 nmol, 2x, (2 experiments), SE 0.6 on next line) | HMdUrd levels (in words) (HMdUrd in epidermal DNA; [4]) | decline of HMdUrd formation (HMdUrd in epidermal DNA; [4]) [%] | HMdUrd/10^4 bases (HMdUrd in epidermal DNA; CAPE 650 nmol then TPA 6.5 nmol, 2x, (2 experiments), SE 10.5 on next line) | growth inhibition, untransformed rat 6 cells (in words) [3] | MPO ([1]; TPA alone, 6.5 nmol, mean ± SE (spread on next printed line: 7.6)) [units/cm^2 skin] | H2O2 ([2]; TPA alone, 6.5 nmol, SE 0.7 on next line) [nmol/cm^2 skin] | HMdUrd/10^4 bases (HMdUrd in epidermal DNA; TPA alone, 6.5 nmol, SE 6.4 on next line) |
| --- | --- | --- | --- | --- | --- | --- | --- | --- | --- | --- | --- | --- | --- | --- | --- | --- |
| O=C(/C=C/c1ccc(O)c(O)c1)OCCc1ccccc1 [CAPE, Caffeic acid phenethyl ester] | ≈ 85% and 85% | 5.9 | 10.8 | this reduction was not as effective as that caused by the lower (6.5 nmol) dose of CAPE | 15.7 | 86 | 11.6 | further decreased | 13.1 /10^4 bases | below the acetone/acetone controls | 115 | 30.5 /10^4 bases | but not that of the untransformed rat 6 cells |  |  |  |
| CCCCCCCCCCCCCC(=O)O[C@@H]1[C@@H](C)[C@@]2(O)[C@@H](C=C(CO)C[C@]3(O)C(=O)C(C)=C[C@@H]23)[C@@H]2C(C)(C)[C@]12OC(C)=O [TPA, 12-O-tetradecanoylphorbol-13-acetate] |  |  |  |  |  |  |  |  |  |  |  |  |  | 23.7 | 31.5 | 39.4 /10^4 bases |
